# Values joined by “and” are separate entries in the source; they are usually repeats but may differ in a detail not shown here. Equal values may be shown once. Toxic doses and inconclusive results are not listed.
# System: P388 leukemia ip, CD2F1 mice, survival T/C
# Experiment: NCI In Vivo Anticancer Drug Screen. Data for tumor model P388 Leukemia (intraperitoneal) in CD2F1 (CDF1) mice
# Conditions: endpoint: median survival time, higher = longer survival
# In short: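 Mice carrying the transplanted tumor received test compound or vehicle. Survival was recorded in each group, and the value is the treated-group measurement divided by that of the vehicle-treated control group.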
# [1] = dose: 50.0 mg/kg/injection, schedule: Q01DX009 (ip), vehicle: saline with Tween-80
# [2] = dose: 100.0 mg/kg/injection, schedule: Q01DX009 (ip), vehicle: saline with Tween-80
# [3] = dose: 200.0 mg/kg/injection, schedule: Q01DX009 (ip), vehicle: saline with Tween-80
# [4] = dose: 60.0 mg/kg/injection, schedule: Q01DX005 (ip), vehicle: saline with Tween-80
# [5] = dose: 120.0 mg/kg/injection, schedule: Q01DX005 (ip), vehicle: saline with Tween-80
# [6] = dose: 240.0 mg/kg/injection, schedule: Q01DX005 (ip), vehicle: saline with Tween-80
# [7] = dose: 25.0 mg/kg/injection, schedule: Q01DX009 (ip), vehicle: saline with Tween-80
# [8] = dose: 50.0 mg/kg/injection, schedule: Q01DX009 (ip), vehicle: Klucel (hydroxypropylcellulose) (HPC)
# [9] = dose: 100.0 mg/kg/injection, schedule: Q01DX009 (ip), vehicle: Klucel (hydroxypropylcellulose) (HPC)
# [10] = dose: 200.0 mg/kg/injection, schedule: Q01DX009 (ip), vehicle: Klucel (hydroxypropylcellulose) (HPC)
# [11] = dose: 50.0 mg/kg/injection, schedule: Q01DX005 (ip), vehicle: saline
# [12] = dose: 100.0 mg/kg/injection, schedule: Q01DX005 (ip), vehicle: saline
# [13] = dose: 60.0 mg/kg/injection, schedule: Q01DX005 (ip), vehicle: Klucel (hydroxypropylcellulose) (HPC)
# [14] = dose: 120.0 mg/kg/injection, schedule: Q01DX005 (ip), vehicle: Klucel (hydroxypropylcellulose) (HPC)
# [15] = dose: 6.25 mg/kg/injection, schedule: Q04DX003 (ip), vehicle: Klucel (hydroxypropylcellulose) (HPC)
# [16] = dose: 12.5 mg/kg/injection, schedule: Q04DX003 (ip), vehicle: Klucel (hydroxypropylcellulose) (HPC)
# [17] = dose: 12.5 mg/kg/injection, schedule: Q01DX009 (ip), vehicle: saline
# [18] = dose: 25.0 mg/kg/injection, schedule: Q01DX009 (ip), vehicle: saline
# [19] = dose: 50.0 mg/kg/injection, schedule: Q01DX009 (ip), vehicle: saline
smiles,measurement,setting,value
CC[N+](C)(C)c1nc(N(C)C)nc(N(C)C)n1,T/C,"dose: 6.0 mg/kg/injection, schedule: Q01DX005 (ip), vehicle: saline",108 % of control
same,T/C,"dose: 12.0 mg/kg/injection, schedule: Q01DX005 (ip), vehicle: saline",118 % of control
CC(=C1N=c2ccccc2=N1)c1[nH]c(O)c2ccccc12,T/C,[1],95 % of control
same,T/C,[2],90 % of control
same,T/C,[3],96 % of control
CNc1c([N+](=O)[O-])cc2[nH]cnc2c1[N+](=O)[O-],T/C,"dose: 25.0 mg/kg/injection, schedule: Q04DX003 (ip), vehicle: saline with Tween-80",97 % of control
same,T/C,"dose: 50.0 mg/kg/injection, schedule: Q04DX003 (ip), vehicle: saline with Tween-80",95 % of control
CC(C)=CN=Cc1nc(Cc2ccccc2)oc1O,T/C,[4],105 % of control
same,T/C,[5],96 % of control
same,T/C,[6],94 % of control
CSC(=S)N/N=C/c1ccccn1,T/C,"dose: 12.5 mg/kg/injection, schedule: Q01DX009 (ip), vehicle: saline with Tween-80",100 % of control
same,T/C,[7],104 % of control and 109 % of control
same,T/C,[1],113 % of control
Brc1ccc(-c2nc3sc(-c4ccc5c(c4)OCO5)nn3c2Br)cc1,T/C,[4],100 % of control
same,T/C,[5],100 % of control
same,T/C,[6],93 % of control
NN(CC(O)COc1ccccc1)C(=O)c1ccccc1O (centres undefined),T/C,[8],108 % of control
same,T/C,[9],108 % of control
same,T/C,[10],106 % of control
C=CCOc1c(C=O)cccc1OC,T/C,"dose: 25.0 mg/kg/injection, schedule: Q01DX005 (ip), vehicle: saline with Tween-80",101 % of control
same,T/C,"dose: 50.0 mg/kg/injection, schedule: Q01DX005 (ip), vehicle: saline with Tween-80",100 % of control
same,T/C,"dose: 100.0 mg/kg/injection, schedule: Q01DX005 (ip), vehicle: saline with Tween-80",108 % of control
CC(O)CCOCCCBr (centres undefined),T/C,[11],100 % of control
same,T/C,[12],102 % of control
same,T/C,"dose: 200.0 mg/kg/injection, schedule: Q01DX005 (ip), vehicle: saline",102 % of control
CCOc1cc2c(cc1C(CC)c1ccc(O)cc1)OCO2 (centres undefined),T/C,"dose: 50.0 mg/kg/injection, schedule: Q01DX005 (ip), vehicle: distilled water + Tween-80",93 % of control
same,T/C,"dose: 100.0 mg/kg/injection, schedule: Q01DX005 (ip), vehicle: distilled water + Tween-80",93 % of control
same,T/C,"dose: 200.0 mg/kg/injection, schedule: Q01DX005 (ip), vehicle: distilled water + Tween-80",96 % of control
COc1ccc(C(=O)C(C)Br)c(OCc2ccccc2)c1OC (centres undefined),T/C,[1],107 % of control
same,T/C,[2],105 % of control and 109 % of control
same,T/C,[3],114 % of control and 118 % of control
same,T/C,"dose: 400.0 mg/kg/injection, schedule: Q01DX009 (ip), vehicle: saline with Tween-80",110 % of control and 122 % of control
COc1ccc(Nc2nc3c(s2)c(C)c(O)c2ccccc23)cc1,T/C,[4],95 % of control
same,T/C,[5],103 % of control
same,T/C,[6],112 % of control
CNC(=O)NC(c1ccc2c(c1)OCO2)c1cc2c(cc1O)OCO2 (centres undefined),T/C,[13],87 % of control
same,T/C,[14],87 % of control
CC(C)OSc1ccccc1,T/C,"dose: 12.5 mg/kg/injection, schedule: Q01DX001 (ip), vehicle: Klucel (hydroxypropylcellulose) (HPC)",113 % of control
same,T/C,"dose: 25.0 mg/kg/injection, schedule: Q01DX001 (ip), vehicle: Klucel (hydroxypropylcellulose) (HPC)",113 % of control
same,T/C,"dose: 50.0 mg/kg/injection, schedule: Q01DX001 (ip), vehicle: Klucel (hydroxypropylcellulose) (HPC)",102 % of control
same,T/C,"dose: 100.0 mg/kg/injection, schedule: Q01DX001 (ip), vehicle: Klucel (hydroxypropylcellulose) (HPC)",103 % of control and 107 % of control and 97 % of control
N#CN=[N+]([O-])c1ccccc1[N+](=O)[O-],T/C,[15],110 % of control
same,T/C,[16],106 % of control
COC1/C=C\OC2(C)Oc3c(C)c(O)c4c(c3C2=O)C2=NC(C)(C)N(c3ccccc3)C2=C(NC(=O)/C(C)=C\C=C\C(C)C(O)C(C)C(O)C(C)C(OC(C)=O)C1C)C4=O (centres undefined),T/C,"dose: 25.0 mg/kg/injection, schedule: Q01DX009 (ip), vehicle: Klucel (hydroxypropylcellulose) (HPC)",100 % of control
same,T/C,[8],103 % of control
same,T/C,[9],98 % of control
same,T/C,[10],107 % of control
Cn1c(=O)[nH]c(Cl)c(NC=O)c1=O,T/C,"dose: 25.0 mg/kg/injection, schedule: Q01DX005 (ip), vehicle: water",98 % of control
same,T/C,"dose: 50.0 mg/kg/injection, schedule: Q01DX005 (ip), vehicle: water",103 % of control
same,T/C,"dose: 100.0 mg/kg/injection, schedule: Q01DX005 (ip), vehicle: water",98 % of control
same,T/C,"dose: 200.0 mg/kg/injection, schedule: Q01DX005 (ip), vehicle: water",109 % of control
COc1cccc(C2SCC(=O)N2c2nncs2)c1OC (centres undefined),T/C,[13],106 % of control
same,T/C,[14],95 % of control
same,T/C,"dose: 240.0 mg/kg/injection, schedule: Q01DX005 (ip), vehicle: Klucel (hydroxypropylcellulose) (HPC)",98 % of control
C/C(COc1ccc([N+](=O)[O-])cc1)=N/NS(=O)(=O)c1cc(Cl)c(Cl)cc1Cl,T/C,[17],101 % of control
same,T/C,[18],102 % of control
same,T/C,[19],99 % of control and 87 % of control
C=C(C)C(=O)OC1CC2(C)OC(=CC2=O)C(C)CC2OC(=O)C(=C)C12 (centres undefined),T/C,"dose: 25.0 mg/kg/injection, schedule: Q01DX001 (ip), vehicle: saline with Tween-80",118 % of control
same,T/C,"dose: 50.0 mg/kg/injection, schedule: Q01DX001 (ip), vehicle: saline with Tween-80",116 % of control
CCCCCCc1cc(C(=O)NN)c2ccccc2n1,T/C,"dose: 50.0 mg/kg/injection, schedule: Q01DX005 (ip), vehicle: Klucel (hydroxypropylcellulose) (HPC)",102 % of control
same,T/C,"dose: 100.0 mg/kg/injection, schedule: Q01DX005 (ip), vehicle: Klucel (hydroxypropylcellulose) (HPC)",99 % of control
same,T/C,"dose: 200.0 mg/kg/injection, schedule: Q01DX005 (ip), vehicle: Klucel (hydroxypropylcellulose) (HPC)",96 % of control
CC1OC(OC23C(=O)CC(C)(O)CC2(O)C=CC2=C3C(=O)c3ccc(C4CC(OC5CCC(OC6CC(O)C(O)C(C)O6)C(C)O5)C(O)C(C)O4)c(O)c3C2=O)CCC1O (centres undefined),T/C,"dose: 1.0 mg/kg/injection, schedule: Q01DX005 (ip), vehicle: DMSO",104 % of control
same,T/C,"dose: 2.0 mg/kg/injection, schedule: Q01DX005 (ip), vehicle: DMSO",105 % of control
same,T/C,"dose: 4.0 mg/kg/injection, schedule: Q01DX005 (ip), vehicle: DMSO",99 % of control
same,T/C,[15],100 % of control
same,T/C,[16],91 % of control
same,T/C,"dose: 25.0 mg/kg/injection, schedule: Q04DX003 (ip), vehicle: Klucel (hydroxypropylcellulose) (HPC)",100 % of control
Cc1cccc[n+]1CC(=O)C[n+]1ccccc1C,T/C,[11],95 % of control
same,T/C,[12],101 % of control
CNCCNc1ccc(NCCNC)c2c1C(=O)c1ccccc1C2=O,T/C,"dose: 2.0 mg/kg/injection, schedule: Q01DX009 (ip), vehicle: acid diluted with saline",183 % of control
same,T/C,"dose: 4.0 mg/kg/injection, schedule: Q01DX009 (ip), vehicle: acid diluted with saline",175 % of control
same,T/C,"dose: 8.0 mg/kg/injection, schedule: Q01DX009 (ip), vehicle: acid diluted with saline",175 % of control
same,T/C,"dose: 12.5 mg/kg/injection, schedule: Q01DX009 (ip), vehicle: distilled water + Tween-80",200 % of control
same,T/C,"dose: 16.0 mg/kg/injection, schedule: Q01DX009 (ip), vehicle: acid diluted with saline",86 % of control
O=S1(=O)CC(SC2CS(=O)(=O)C2)C1,T/C,"dose: 100.0 mg/kg/injection, schedule: Q01DX001 (ip), vehicle: saline with Tween-80",103 % of control
same,T/C,"dose: 200.0 mg/kg/injection, schedule: Q01DX001 (ip), vehicle: saline with Tween-80",101 % of control
same,T/C,"dose: 400.0 mg/kg/injection, schedule: Q01DX001 (ip), vehicle: saline with Tween-80",100 % of control
COc1cc([N+](=O)[O-])ccc1NC(=O)Nc1nccs1,T/C,[1],93 % of control
same,T/C,[2],101 % of control
same,T/C,[3],99 % of control
O=N[O-].O=N[O-].O=[N+]([O-])O.[Co+3].[NH-]CC[NH-].[NH-]CC[NH-],T/C,[17],104 % of control
same,T/C,[18],98 % of control
same,T/C,[19],100 % of control and 98 % of control
same,T/C,"dose: 100.0 mg/kg/injection, schedule: Q01DX009 (ip), vehicle: saline",100 % of control
C=CS(=O)(=O)c1ccc(Nc2cc(S(=O)(=O)O)c(N)c3c2C(=O)c2ccccc2C3=O)cc1,T/C,[7],116 % of control and 120 % of control
same,T/C,[1],104 % of control and 115 % of control and 123 % of control
same,T/C,[2],107 % of control and 120 % of control and 123 % of control
same,T/C,[3],105 % of control and 118 % of control
